Assay results reported in EP4741397A1, “FUSED TRICYCLIC COMPOUND, AND PREPARATION METHOD THEREFOR AND USE THEREOF” (Shenzhen Zhongge Biological Technology Co., Ltd., priority 2023, dated 2025).
pIC50: −log10 of the molar value.

Assays:
SARM1 = target: T1, SARM1 (Homo sapiens, UniProt Q6SZW1); experiment: In vitro enzyme inhibition activity (SAM-TIR lysate, NAD/ADPR by HPLC-MS/MS); type: biochemical; conditions: SAM-TIR lysate (SARM1 408-724) from NRK1-HEK293T cells; 25°C, 3 h with NAD
T1 construct: 408-724 expression plasmid and vector-control customized by SinoBio; host or cells: NRK1-HEK293T cells, transient transfection; crude clarified lysate used as the enzyme
T1 sequence (Q6SZW1 408-724 limits assumed): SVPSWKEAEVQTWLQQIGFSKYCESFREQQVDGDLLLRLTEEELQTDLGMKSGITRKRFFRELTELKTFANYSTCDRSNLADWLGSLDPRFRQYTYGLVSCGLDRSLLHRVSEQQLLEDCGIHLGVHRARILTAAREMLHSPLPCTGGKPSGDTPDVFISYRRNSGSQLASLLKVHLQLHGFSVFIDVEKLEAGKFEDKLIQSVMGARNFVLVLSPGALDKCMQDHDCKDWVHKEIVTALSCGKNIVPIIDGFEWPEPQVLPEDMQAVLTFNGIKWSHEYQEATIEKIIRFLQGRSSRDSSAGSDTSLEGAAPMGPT
Experimental: NRK1-HEK293T cells were seeded at approximately 10 × 10^6 cells/plate into 150 mm culture dishes containing 25 mL of growth medium. […] At the time of transfection, 250 µL of nicotinamide riboside (100 mM) was added to each dish to minimize toxicity from SAM-TIR overexpression. 48 hours after the transfection, the cells were washed three to four times with cold PBS and collected. The cells were resuspended in 0.5 mL of PBS containing protease inhibitors. Cell lysates were prepared by sonication. The lysate was centrifuged at 12500 rpm for 10 min at 4°C to remove cell debris, and protein concentration was determined by bicinchoninic acid (BCA) assay and used to normalize lysate concentration. The aliquots of supernatant were stored at -80°C until use.
• 1) Transfer the compound dilutions into an assay plate by Echo 650; • 2) Add 10µl 2× SAM-TIR lysate to each well; • 3) Seal the assay plate, centrifuge at 1000rpm for 1min, and incubate at 25°C for 30min; • 4) Add 10µl 2× NAD to each well; • 5) Centrifuge at 1000rpm for 1min, and incubate at 25°C for 3h; • 6) Add 40µL trichloroacetic acid to each well to terminate the reaction, mix and shake for 30s, and centrifuge at 4000rpm for 10min; • 7) Take 40µL supernatant from each well and add appropriate amount of ammonia water to adjust the pH; • 8) Detect nicotinamide adenine dinucleotide (NAD) and adenosine diphosphate ribose (ADPR) by HPLC-MS/MS.

[1] = Kinetic solubility evaluation; type: physicochemical; conditions: pbs, pH 7.4, aqueous buffer
Experimental: 10 mM stock solution was prepared by dissolving the test compound in DMSO. 100 mM K2HPO4 solution was prepared by adding 8.71 g K2HPO4 to 500 mL deionized water. 100 mM KH2PO4 solution was prepared by adding 2.05 g KH2PO4 to 150 mL deionized water. 405 mL of 100 mM K2HPO4 and 95 mL of 100 mM KH2PO4 were mixed and adjusted to pH 7.4 with 100 mM K2HPO4/KH2PO4 solution.
16 µL of 10 mM compound stock solution was added to 784 µL of PBS buffer (n = 3) by 96 well plate, and the plate was sealed and shaken at 25°C, 1000 rpm for 1.5 h. After incubation, the solution was transferred to a filter plate. All samples were filtered. 5 µL of the filtrate was taken, added to 5 µL of DMSO and 490 µL acetonitrile aqueous solution containing internal standard (1:1) and mixed. Then the mixed solution was diluted with acetonitrile aqueous solution containing internal standard (1:1) according to the properties of the compound and its response in the mass spectrometer. The dilution factor was adjusted according to the solubility value and UPLC-MS/MS signal response.

[2] = Liver microsomal stability in vitro; type: in vitro ADME; conditions: liver microsomes, NADPH, 37 °C, 0-45 min
Experimental: 100 mM K-Mg-buffer containing 5 mM MgCl2 was preheated. The spiking solution was prepared by adding 5 µL of 10 mM compound and reference stock solution to 95 µL of acetonitrile (ACN). 1.5 µL of 500 µM spiking solution and 18.75 µL of 20 mg/mL liver microsomes were added to 479.8 µL of K-Mg-buffer. NADPH stock solution (3 mM) was prepared by dissolving NADPH in K-Mg-buffer. 30 µL of 1.5 µM spiking solution containing microsomes was evenly dropped into the assay plate at different time points (0, 5, 15, 30, and 45 min), and pre-incubated at 37 °C for 5 min. At 0 min, 200 µL of ACN containing IS (internal standard, tolbutamid/terfenadine) was added to the wells, then 15 µL of NADPH stock solution (6 mM) was added. For the other time points, the reaction was initiated and timed by adding 15 µL of NADPH stock solution (6 mM) to the wells. The reaction was stopped by adding 200 µL of ACN containing IS to the corresponding plate wells at 5, 15, 30, and 45 min, respectively. After quenching, the plate was shaken at 600 rpm for 10 min and then centrifuged at 4000 rpm for 50 min. 80 µL of supernatant per well was pipetted to a 96-well sample plate containing 160 µL of pure water for UPLC/MS/MS analysis.

[3] = Cell membrane permeability (cell monolayer, A to B and B to A); type: in vitro ADME; conditions: 120 min, 37°C; for Papp A→B at 2 h, 10 µM: A to B
Experimental: Test compounds were diluted from 10 mM stock solution to a concentration of 10 µM in transport buffer (HBSS + BSA) and applied to the apical or basolateral side of the cell monolayer. The permeability of the test compounds was determined in both direction of from A to B and B to A directions after 120 min incubation at 37°C, 5% CO2 and 95% relative humidity. In addition, the efflux ratio of each compound was determined. The analyte and reference compounds were quantified by LC-MS/MS based on the analyte/IS peak area ratio.

[4] = Pharmacokinetic evaluation in mice; type: in vivo, CD1 mice; conditions: plasma
Experimental: The test compound was dissolved in the vehicle to prepare a clear solution or a homogeneous suspension. Three mice (CD1 mice) per group were administered 2 mg/kg via the tail vein and 10 mg/kg orally (PO). Blood was collected at 0.083 h, 0.25 h, 0.5 h, 1 h, 2 h, 4 h, 8 h, and 24 h after intravenous administration, and at 0.083 h, 0.25 h, 0.5 h, 1 h, 2 h, 4 h, 8 h and 24 h after oral administration. Plasma samples were centrifuged, and the supernatant was collected to prepare samples for quantitative analysis by LC/MS/MS. Conclusion: At least some of the compounds of the present application (e.g., compound 25) have excellent pharmacokinetic properties in mice (including but not limited to Cl (clearance rate), T1/2 (half-life), Cmax (peak concentration), AUC (area under the drug-time curve), F (bioavailability), etc.). Table 6 The mouse PK properties of compound 25

[5] = In vivo brain permeability (plasma and cerebrospinal fluid PK); conditions: CD1 mice, PO 10 mg/kg; for AUC(0-inf) / Cmax / Tmax / half-life: mouse
Experimental: The test compound was dissolved in the vehicle to prepare a clear solution or a homogeneous suspension. Three mice (CD1 mice) per group were orally administered (PO) at 10 mg/kg. Plasma and cerebrospinal fluid were collected at 1 h, 4 h, and 8 h after oral administration and quantitatively analyzed by LC/MS/MS. Conclusion: At least some of the compounds of the present application have reached very high levels of Cmax and AUC in cerebrospinal fluid and have good in vivo brain permeability. […] Table 7 Plasma and cerebrospinal fluid PK of compound 25

mouse primary neurons = experiment: Neuronal injury model based on mouse primary neurons (axotomy, TUJ1 staining); type: cell-based; conditions: 0.3 µM, compared with the control I-5; axotomy at DIV 10, Figure 1
Experimental: Methods: Neocortices were dissected from the brains of newborn mice at DIV 0 (Day In Vitro 0), digested with 0.05% (w/v) trypsin/EDTA, and incubated at 37°C for 10 min. Neuronal cells obtained after digestion were seeded in cell culture dishes preincubated with poly-D-lysine in Neurobasal/B-27 medium (Neurobasal medium supplemented with 1% (v/v) B-27, 2 mM glutamine, 100 U/ml penicillin, and […] streptomycin). Starting from DIV 3, a half of the medium was replaced with fresh Neurobasal/B-27 medium every two days. At DIV 10, the cultures were subjected to axotomy and compound administration. The cells were fixed with 4% paraformaldehyde the day after axotomy and subjected to cell immunofluorescence staining for TUJ1. Confocal imaging of axons was performed using a Zeiss LSM710 laser confocal microscope.

sciatic nerve = experiment: Mouse sciatic nerve axotomy (SNA) model; type: in vivo; conditions: mice, Figure 2
Excerpt: Methods: Mice were anesthetized with isoflurane, and the skin of the right hind limb was shaved and sterilized with iodine. An incision was made between the knee and hip joints, and the gluteal muscle was carefully separated using a pair of sterile surgical scissors. The sciatic nerve was cut proximally to the thigh with a pair of sterile surgical scissors, and a 1-2 mm segment of the nerve was removed to prevent axonal regeneration into the distal stump. The gluteal muscle was then placed back to its original anatomical position, and the overlying skin was reattached with surgical staples or sutures.
To examine the denervation of the neuromuscular junction (NMJ), the tibialis anterior muscles were dissected from perfused animals and fixed overnight with 4% paraformaldehyde/PBS at 4°C. Immunohistochemical staining was subsequently performed with Neurofilament-L antibody and Synapsin-1 antibody as well as acetylcholine receptor (AchR) markers. Finally, imaging was performed by laser confocal microscope Zeiss LSM710.

## O=C1C(Cc2ccc(F)c(Cl)c2)CCN1c1nc2ccc3cnccc3c2[nH]1 (stereo not shown) [Cpd. 3]
SARM1
  pIC50: 6.00 to 6.30

## C=C(CCc1ccc(Cl)cc1)C(=O)Nc1nc2ccc3cnccc3c2[nH]1 [Cpd. 11]
SARM1
  pIC50: < 6.00

## O=C1C(Cc2ccc(Cl)cc2)CCN1c1nc2ccc3cnccc3c2[nH]1 (stereo not shown) [Cpd. 2]
SARM1
  pIC50: > 6.82

## O=C1C(Cc2ccc(Cl)c(F)c2)CCCN1c1nc2c([nH]1)COc1cnccc1-2 (stereo not shown) [Cpd. 25]
SARM1
  pIC50: > 6.82
[1]
  solubility at […]: > 50 µg/mL
[2]
  half-life: 26.1 min
[3]
  efflux ratio at 2 h, 10 µM: 0.9
  Papp A→B at 2 h, 10 µM: 7.56 ×10⁻⁶ cm/s
[4]; mouse IV (2 mg/kg)
  AUC(0-inf): 2210 ng·h/mL
  C0: 2110 ng/mL
  clearance: 15.1 mL/min/kg
  half-life: 79.8 min
[4]; mouse IV (2 mg/kg), read-out: Vss
  Vd: 1.31 L/kg
[4]; mouse PO (10 mg/kg)
  AUC(0-inf): 9820 ng·h/mL
  Cmax: 3000 ng/mL
  Tmax: 25 min
  half-life: 110 min
[4]; mouse PO (10 mg/kg) vs IV (2 mg/kg)
  bioavailability: 89%
[5]
  AUCbrain/AUCplasma: 0.71
[5]; Cerebrospinal fluid PK
  AUC(0-inf): 6900 ng·h/mL
  Cmax: 2200 ng/mL
  Tmax: 60 min
  half-life: 84.6 min
[5]; Plasma PK
  AUC(0-inf): 9700 ng·h/mL
  Cmax: 3090 ng/mL
  Tmax: 60 min
  half-life: 84 min
Mouse primary neurons
  neuron-protecting activity (axonal loss after axonal injury): stronger neuron-protecting activity
Sciatic nerve
  protection of axons from injury-induced axonal degeneration: significantly protect axons from injury-induced axonal degeneration

## O=C1C(Cc2ccc(Cl)c(Cl)c2)CCN1c1nc2ccc3cnccc3c2[nH]1 (stereo not shown) [Cpd. 6]
SARM1
  pIC50: 6.30 to 6.82

## O=C1C(Cc2cc(F)c(Cl)c(F)c2)CCN1c1nc2ccc3cnccc3c2[nH]1 (stereo not shown) [Cpd. 4]
SARM1
  pIC50: > 6.82
[2]
  half-life: 28.9 min
[3]
  efflux ratio at 2 h, 10 µM: 1.15
  Papp A→B at 2 h, 10 µM: 11 ×10⁻⁶ cm/s

## O=C(CCc1cnc(Cl)c(F)c1)Nc1nc2ccc3cnccc3c2[nH]1 [Cpd. 10]
SARM1
  pIC50: 6.30 to 6.82
[2]
  half-life: 21.1 min

## O=C1C(Cc2ccc(Cl)c(F)c2)CCN1c1nc2ccc3cnccc3c2[nH]1 (single isomer, unassigned) [Cpd. 18]
SARM1
  pIC50: > 6.82

## O=C(CCc1ccc(Cl)c(F)c1)Nc1nc2c([nH]1)COc1cnccc1-2 [Cpd. 23]
SARM1
  pIC50: > 6.82
[2]
  half-life: 37.4 min

## O=C1C(Cc2ccc(Cl)c(F)c2)CCN1c1nc2c(ccc3cnccc32)o1 (stereo not shown) [Cpd. 20]
SARM1
  pIC50: > 6.82

## O=C1C(Cc2cc(F)c(Cl)c(F)c2)CCCN1c1nc2ccc3cnccc3c2[nH]1 (stereo not shown) [Cpd. 14]
SARM1
  pIC50: > 6.82

## O=C1C(Cc2ccc(Cl)c(F)c2)CCCN1c1nc2c(ccc3cnccc32)o1 (stereo not shown) [Cpd. 21]
SARM1
  pIC50: 6.30 to 6.82

## O=C(CCc1ccc(Cl)cc1)Nc1nc2ccc3cnccc3c2[nH]1 [Cpd. 8]
SARM1
  pIC50: > 6.82

## O=C1C(Cc2ccc(Cl)c(F)c2)CCN1c1nc2c([nH]1)COc1cnccc1-2 (stereo not shown) [Cpd. 24]
SARM1
  pIC50: > 6.82

## O=C1C(Cc2ccc(Cl)c(F)c2)CCN1c1nc2ccc3cnccc3c2[nH]1 (stereo not shown) [Cpd. 5]
SARM1
  pIC50: > 6.82

## O=C1C(Cc2ccc(Cl)c(F)c2)CCCN1c1nc2ccc3cnccc3c2[nH]1 (stereo not shown) [Cpd. 15]
SARM1
  pIC50: > 6.82

## O=C(CCc1ccc(Cl)c(F)c1)Nc1nc2ccc3cnccc3c2[nH]1 [Cpd. 9]
SARM1
  pIC50: > 6.82
[2]
  half-life: 19.7 min

## O=C(CCc1ccc(Cl)cc1)Nc1[nH]nc2c1ccc1cnccc12 [Cpd. 12]
SARM1
  pIC50: 6.00 to 6.30

## O=C1C(Cc2cnc(Cl)c(F)c2)CCN1c1nc2ccc3cnccc3c2[nH]1 (stereo not shown) [Cpd. 7]
SARM1
  pIC50: 6.30 to 6.82

## O=C(CCc1ccc(Cl)c(F)c1)Nc1nc2c(ccc3cnccc32)o1 [Cpd. 22]
SARM1
  pIC50: 6.30 to 6.82

## O=C1C(Cc2ccc(Cl)c(F)c2)CCN1c1nc2ccc3cnccc3c2[nH]1 (single isomer, unassigned) [Cpd. 19]
SARM1
  pIC50: > 6.82
